Assay results from patent US6537995B2, “Heterocyclic carboxamides” (Pfizer Inc., priority 1998, dated 2003).

| SMILES | melting point |
| --- | --- |
| COc1ccc(CNC(=O)c2ccc(-c3ccccc3N3CCN(C)CC3)s2)cc1.Cl | 140 °C (dec.) |
| CN1CCN(c2ccccc2-c2ccc(C(=O)NCc3ccc(Cl)cc3)o2)CC1.Cl.O (hydrate or solvate) | 110 °C (dec.) |
| CN1CCN(c2ccccc2-c2ccc(C(=O)NCc3ccccc3)s2)CC1.Cl.O.O (hydrate or solvate) | 145 °C (dec.) |
| CN1CCN(c2ccccc2-c2ccc(C(=O)Nc3ccc(Cl)cc3)o2)CC1.Cl.O (hydrate or solvate) | 145 °C (dec.) |
| CN1CCN(c2ccccc2-c2ccc(C(=O)Nc3ccc(Cl)cc3)s2)CC1.Cl | 149 °C (dec.) |
| CN1CCN(c2ccccc2-c2ccc(C(=O)NCc3ccc(Cl)cc3)[nH]2)CC1.Cl | 80 °C (dec.) |

The remaining lines, values ahead:

| melting point | SMILES |
| --- | --- |
| 256 to 257 °C | CN1CCN(c2ccccc2-c2ccc(C(=O)NCc3ccc(Cl)cc3)s2)CC1.Cl.O (hydrate or solvate) |
| 187 to 188 °C | CN1CCN(c2ccccc2-c2ccc(C(=O)NCc3ccc(F)cc3)s2)CC1.Cl.O (hydrate or solvate) |
| 175 to 176.5 °C | CN1CCN(c2ccc(F)cc2-c2ccc(C(=O)NCc3ccc(Cl)cc3)s2)CC1.O (hydrate or solvate) |
